Results published in patent US7981903B2, “2-[2-{phenylamino}-1H-pyrrolo[2,3-D]pyrimidin-4-yl)amino] benzamide derivatives as IGF-1R inhibitors for the treatment of cancer” (GlaxoSmithKline LLC, priority 2007, dated 2011).
Where “and” joins values, the source holds several entries; their conditions need not be identical. Identical values can stand only once.

How the values were obtained:
human IR (hIR) = biological target: T1, human IR (hIR) (Homo sapiens, UniProt P06213); experiment: TR-FRET kinase assay of purified hIR; format: biochemical; conditions: activated hIR 0.5 nM, 10 μM ATP, values given as pIC50 category
T1 construct: containing amino acid residues 979-1382 of human IR; made in house; host or cells: Sf9 cells (baculovirus), same process as hIGF1R

ALK = ALK (Homo sapiens, UniProt Q9UM73); experiment: ALK enzyme assay (HTRF); format: biochemical; conditions: 0.25 nM ALK, 15.0 μM ATP, values given as pIC50 category
How it was run: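 Isolated ALK phosphorylates a biotinylated tyrosine peptide, 120 min at 20° C; anti-phosphotyrosine Eu-cryptate/streptavidin-XL665 HTRF read after 60 min with EDTA-containing detection mix.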

[1] = biological target: T2, NIH-3T3 cells overexpressing human IGF-1R (Homo sapiens, UniProt P08069); experiment: IGF-1R cellular autophosphorylation (DELFIA); format: cell-based
T2 construct: expressed in transfected cells; host or cells: NIH-3T3 (mouse fibroblasts)
How it was run: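 Receptor autophosphorylation measured by DELFIA, capturing IGF-1R or IRβ and detecting with europium anti-pTyr, reported as percent of IGF-1- or insulin-stimulated signal. Compounds (30 uM to 1.5 nM) added 2 h before ligand, then 15 min stimulation (IGF-1 30 ng/ml or insulin 3 ug/ml).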

T2 sequence (P08069 31-1367): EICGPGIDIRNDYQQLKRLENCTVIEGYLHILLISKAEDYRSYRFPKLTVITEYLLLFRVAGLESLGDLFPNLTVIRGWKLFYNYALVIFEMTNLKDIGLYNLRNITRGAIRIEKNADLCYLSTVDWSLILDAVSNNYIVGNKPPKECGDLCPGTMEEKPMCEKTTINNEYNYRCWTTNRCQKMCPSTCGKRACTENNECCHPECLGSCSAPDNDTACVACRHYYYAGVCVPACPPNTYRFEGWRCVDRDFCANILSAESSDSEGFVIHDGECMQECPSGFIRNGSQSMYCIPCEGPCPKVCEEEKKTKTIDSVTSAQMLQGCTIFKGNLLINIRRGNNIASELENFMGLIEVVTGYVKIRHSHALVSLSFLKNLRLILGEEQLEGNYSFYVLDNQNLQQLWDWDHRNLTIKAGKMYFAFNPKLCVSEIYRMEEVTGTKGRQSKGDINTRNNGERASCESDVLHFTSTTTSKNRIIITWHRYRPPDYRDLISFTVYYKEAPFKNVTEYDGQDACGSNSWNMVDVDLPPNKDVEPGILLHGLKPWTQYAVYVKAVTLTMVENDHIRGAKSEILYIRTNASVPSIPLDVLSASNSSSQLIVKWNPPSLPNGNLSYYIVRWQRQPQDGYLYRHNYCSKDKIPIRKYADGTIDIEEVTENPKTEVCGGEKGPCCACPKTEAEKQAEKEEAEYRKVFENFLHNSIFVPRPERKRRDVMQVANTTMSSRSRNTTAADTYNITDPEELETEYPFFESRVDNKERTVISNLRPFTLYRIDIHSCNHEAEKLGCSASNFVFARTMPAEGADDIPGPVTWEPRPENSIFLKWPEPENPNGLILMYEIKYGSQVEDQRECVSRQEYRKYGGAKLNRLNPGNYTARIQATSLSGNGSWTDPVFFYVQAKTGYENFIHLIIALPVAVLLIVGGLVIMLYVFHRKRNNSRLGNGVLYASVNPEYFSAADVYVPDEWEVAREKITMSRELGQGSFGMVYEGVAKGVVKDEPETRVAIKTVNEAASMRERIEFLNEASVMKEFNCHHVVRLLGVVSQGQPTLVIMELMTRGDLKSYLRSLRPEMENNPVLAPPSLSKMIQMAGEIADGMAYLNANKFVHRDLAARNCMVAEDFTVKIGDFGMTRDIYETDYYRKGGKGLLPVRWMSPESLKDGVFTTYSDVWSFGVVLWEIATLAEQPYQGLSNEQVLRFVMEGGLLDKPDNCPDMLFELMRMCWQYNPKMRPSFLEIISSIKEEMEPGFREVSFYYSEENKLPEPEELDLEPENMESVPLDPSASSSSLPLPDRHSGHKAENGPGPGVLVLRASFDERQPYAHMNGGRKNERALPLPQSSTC
ALK, sequence (Q9UM73 19-1620): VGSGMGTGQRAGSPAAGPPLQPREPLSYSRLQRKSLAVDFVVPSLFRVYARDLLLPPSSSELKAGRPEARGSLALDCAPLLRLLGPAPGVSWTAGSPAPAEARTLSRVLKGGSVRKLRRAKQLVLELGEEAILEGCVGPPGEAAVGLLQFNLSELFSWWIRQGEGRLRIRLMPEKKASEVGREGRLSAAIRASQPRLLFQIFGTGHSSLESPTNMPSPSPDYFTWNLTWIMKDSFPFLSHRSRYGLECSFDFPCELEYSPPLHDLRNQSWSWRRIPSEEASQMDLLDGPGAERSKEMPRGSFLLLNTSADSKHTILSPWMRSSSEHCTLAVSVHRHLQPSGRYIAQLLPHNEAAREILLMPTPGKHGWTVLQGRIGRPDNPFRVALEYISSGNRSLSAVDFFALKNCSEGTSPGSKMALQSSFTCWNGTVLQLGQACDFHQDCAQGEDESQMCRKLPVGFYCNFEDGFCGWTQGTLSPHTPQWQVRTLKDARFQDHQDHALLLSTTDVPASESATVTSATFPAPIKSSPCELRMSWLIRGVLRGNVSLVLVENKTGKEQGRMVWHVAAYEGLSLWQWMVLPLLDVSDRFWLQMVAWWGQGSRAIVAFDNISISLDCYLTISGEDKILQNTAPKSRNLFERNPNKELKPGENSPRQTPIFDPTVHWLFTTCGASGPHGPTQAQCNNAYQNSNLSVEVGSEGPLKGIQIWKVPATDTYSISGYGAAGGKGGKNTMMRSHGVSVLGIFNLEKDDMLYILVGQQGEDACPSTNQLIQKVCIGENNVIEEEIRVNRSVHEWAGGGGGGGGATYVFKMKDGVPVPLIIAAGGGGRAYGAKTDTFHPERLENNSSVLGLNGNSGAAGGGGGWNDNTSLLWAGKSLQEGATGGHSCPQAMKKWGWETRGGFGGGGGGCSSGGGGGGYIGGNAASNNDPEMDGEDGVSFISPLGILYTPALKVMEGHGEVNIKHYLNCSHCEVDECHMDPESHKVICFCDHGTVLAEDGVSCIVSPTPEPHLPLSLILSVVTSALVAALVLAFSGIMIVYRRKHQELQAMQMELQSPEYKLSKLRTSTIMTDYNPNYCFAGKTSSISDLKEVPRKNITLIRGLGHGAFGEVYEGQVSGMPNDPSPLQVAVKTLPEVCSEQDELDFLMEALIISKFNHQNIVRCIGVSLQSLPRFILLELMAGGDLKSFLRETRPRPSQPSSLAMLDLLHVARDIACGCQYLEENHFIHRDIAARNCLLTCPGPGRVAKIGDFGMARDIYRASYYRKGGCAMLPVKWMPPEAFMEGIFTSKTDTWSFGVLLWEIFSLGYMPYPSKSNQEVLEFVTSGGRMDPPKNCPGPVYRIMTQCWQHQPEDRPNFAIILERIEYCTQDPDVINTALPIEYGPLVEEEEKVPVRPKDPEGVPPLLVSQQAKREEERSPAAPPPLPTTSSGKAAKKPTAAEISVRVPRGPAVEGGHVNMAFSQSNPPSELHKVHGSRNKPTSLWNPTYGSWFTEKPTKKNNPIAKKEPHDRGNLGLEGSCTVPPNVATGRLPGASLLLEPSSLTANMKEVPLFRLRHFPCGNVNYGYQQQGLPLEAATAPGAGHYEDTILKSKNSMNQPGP
T1 sequence (P06213 979-1382): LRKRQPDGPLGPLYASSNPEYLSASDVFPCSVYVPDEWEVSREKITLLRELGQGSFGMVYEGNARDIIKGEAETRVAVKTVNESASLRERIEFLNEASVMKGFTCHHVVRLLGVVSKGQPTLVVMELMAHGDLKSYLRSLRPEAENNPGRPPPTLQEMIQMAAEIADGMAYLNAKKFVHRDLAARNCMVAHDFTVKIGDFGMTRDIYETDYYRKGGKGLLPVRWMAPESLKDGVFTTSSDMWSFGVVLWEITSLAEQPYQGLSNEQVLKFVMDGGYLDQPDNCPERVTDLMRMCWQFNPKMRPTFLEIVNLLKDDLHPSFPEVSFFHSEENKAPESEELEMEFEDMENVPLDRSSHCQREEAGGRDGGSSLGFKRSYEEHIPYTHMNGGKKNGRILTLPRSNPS

| SMILES | IC50 (human IR (hIR)) | IC50 (ALK) [nM] | IC50 [1] [nM] |
| --- | --- | --- | --- |
| COc1cc2c(cc1Nc1nc(Nc3cccc(F)c3C(N)=O)c3cc[nH]c3n1)CCN2C(=O)CN(C)C [Example 197, 2-[(2-{[1-(N,N-dimethylglycyl)-6-(methyloxy)-2,3-dihydro-1H-indol-5-yl]amino}-1H-pyrrolo[2,3-d]pyrimidin-4-yl)amino]-6-fluorobenzamide] | 0.251 to 1 nM | 1.26 to 3.98 | 100 to 500 |
| CNC(=O)c1c(F)cccc1Nc1nc(Nc2cc3c(cc2OC)N(C(=O)CN(C)C)CC3)nc2[nH]ccc12 [Example 198, 2-[(2-{[1-(N,N-dimethylglycyl)-6-(methyloxy)-2,3-dihydro-1H-indol-5-yl]amino}-1H-pyrrolo[2,3-d]pyrimidin-4-yl)amino]-6-fluoro-N-methylbenzamide] | 1.26 to 3.98 nM | 1.26 to 3.98 | > 500 |
| COc1cc(N2CCN(C(C)C)CC2)ccc1Nc1nc(Nc2cccc3c2C(=O)NC3)c2cc[nH]c2n1 [Example 199, 7-[(2-{[4-[4-(1-methylethyl)-1-piperazinyl]-2-(methyloxy)phenyl]amino}-1H-pyrrolo[2,3-d]pyrimidin-4-yl)amino]-2,3-dihydro-1H-isoindol-1-one] | 1.26 to 3.98 nM | 0.251 to 1 | < 100 |
| CCCN1CCC(COc2ccc(Nc3nc(Nc4cccc(F)c4C(N)=O)c4cc[nH]c4n3)c(OC)c2)CC1 [Example 206, 2-fluoro-6-({2-[(2-(methyloxy)-4-{[(1-propyl-4-piperidinyl)methyl]oxy}phenyl)amino]-1H-pyrrolo[2,3-d]pyrimidin-4-yl}amino)benzamide] | 1.26 to 3.98 nM | 1.26 to 3.98 | 100 to 500 |
| COc1cc(N2CCCN(C)CC2)ccc1Nc1nc(Nc2cccc(F)c2C(N)=O)c2cc[nH]c2n1 [Example 209, 2-fluoro-6-[(2-{[4-(4-methylhexahydro-1H-1,4-diazepin-1-yl)-2-(methyloxy)phenyl]amino}-1H-pyrrolo[2,3-d]pyrimidin-4-yl)amino]benzamide] | 1.26 to 3.98 nM | 0.251 to 1 | 100 to 500 |
| CNC(=O)c1c(F)cccc1Nc1nc(Nc2cc3c(cc2OC)CCCN3C(=O)CN(C)C)nc2[nH]ccc12 [Example 212, 2-[(2-{[1-(N,N-dimethylglycyl)-6-(methyloxy)-1,2,3,4-tetrahydro-7-quinolinyl]amino}-1H-pyrrolo[2,3-d]pyrimidin-4-yl)amino]-6-fluoro-N-methylbenzamide] | 1.26 to 3.98 nM | 1.26 to 3.98 | 100 to 500 |
| CNC(=O)c1c(F)cccc1Nc1nc(Nc2cc3c(cc2OC)CCCN3C(=O)CN2CCCCC2)nc2[nH]ccc12 [Example 217, 2-fluoro-N-methyl-6-[(2-{[6-(methyloxy)-1-(1-piperidinylacetyl)-1,2,3,4-tetrahydro-7-quinolinyl]amino}-1H-pyrrolo[2,3-d]pyrimidin-4-yl)amino]benzamide] | 1.26 to 3.98 nM | 5.01 to 200 | < 100 |
| COc1cc2c(cc1Nc1nc(Nc3cccc(F)c3C(N)=O)c3cc[nH]c3n1)CN(CCF)CC2 [Example 233, 2-fluoro-6-[(2-{[2-(2-fluoroethyl)-6-(methyloxy)-1,2,3,4-tetrahydro-7-isoquinolinyl]amino}-1H-pyrrolo[2,3-d]pyrimidin-4-yl)amino]benzamide] | 1.26 to 3.98 nM | 1.26 to 3.98 | 100 to 500 |
| COc1cc2c(cc1Nc1nc(Nc3cccc(F)c3C(N)=O)c3cc[nH]c3n1)CN(C(C)C)CC2 [Example 236, 2-fluoro-6-[(2-{[2-(1-methylethyl)-6-(methyloxy)-1,2,3,4-tetrahydro-7-isoquinolinyl]amino}-1H-pyrrolo[2,3-d]pyrimidin-4-yl)amino]benzamide] | 1.26 to 3.98 nM | 1.26 to 3.98 | 100 to 500 |
| CCC(C)N1CCc2cc(OC)c(Nc3nc(Nc4cccc(F)c4C(N)=O)c4cc[nH]c4n3)cc2C1 (stereo not drawn) [Example 237, 2-fluoro-6-[(2-{[6-(methyloxy)-2-(1-methylpropyl)-1,2,3,4-tetrahydro-7-isoquinolinyl]amino}-1H-pyrrolo[2,3-d]pyrimidin-4-yl)amino]benzamide] | 1.26 to 3.98 nM | 1.26 to 3.98 | 100 to 500 |
| COc1cc2c(cc1Nc1nc(Nc3cc(F)cc(F)c3C(N)=O)c3cc[nH]c3n1)CN(CCF)CC2 [Example 239, 2,4-difluoro-6-[(2-{[2-(2-fluoroethyl)-6-(methyloxy)-1,2,3,4-tetrahydro-7-isoquinolinyl]amino}-1H-pyrrolo[2,3-d]pyrimidin-4-yl)amino]benzamide] | 1.26 to 3.98 nM | 1.26 to 3.98 | > 500 |
| CNC(=O)c1c(F)cccc1Nc1nc(Nc2cc(NC(=O)CN(C)C)ccc2OC)nc2[nH]ccc12 [Example 245, 2-[(2-{[5-[(N,N-dimethylglycyl)amino]-2-(methyloxy)phenyl]amino}-1H-pyrrolo[2,3-d]pyrimidin-4-yl)amino]-6-fluoro-N-methylbenzamide] | 0.251 to 1 nM and 1.26 to 3.98 nM | 0.251 to 1 | > 500 |
| Cc1cc2c(cc1Nc1nc(Nc3cccc(F)c3C(N)=O)c3cc[nH]c3n1)N(C(=O)CN(C)C)CCC2 [Example 246, 2-[(2-{[1-(N,N-dimethylglycyl)-6-methyl-1,2,3,4-tetrahydro-7-quinolinyl]amino}-1H-pyrrolo[2,3-d]pyrimidin-4-yl)amino]-6-fluorobenzamide] | 0.251 to 1 nM and 1.26 to 3.98 nM | 5.01 to 200 | 100 to 500 |
| CNC(=O)c1c(F)cccc1Nc1nc(Nc2cc3c(cc2OC)CCN3C(=O)CN(C)C)nc2[nH]cc(F)c12 [Example 253, 2-[(2-{[1-(N,N-dimethylglycyl)-5-(methyloxy)-2,3-dihydro-1H-indol-6-yl]amino}-5-fluoro-1H-pyrrolo[2,3-d]pyrimidin-4-yl)amino]-6-fluoro-N-methylbenzamide] | 1.26 to 3.98 nM | 0.251 to 1 | 100 to 500 |
